# Molecular target: T1, Zcchc11 enzyme (Homo sapiens, UniProt Q5TAX3)
# T1 construct: made in house; host or cells: HEK293 cells (Zcchc11); E. coli Rosetta II (LIN28A)
# T1 sequence (Q5TAX3 212-1420): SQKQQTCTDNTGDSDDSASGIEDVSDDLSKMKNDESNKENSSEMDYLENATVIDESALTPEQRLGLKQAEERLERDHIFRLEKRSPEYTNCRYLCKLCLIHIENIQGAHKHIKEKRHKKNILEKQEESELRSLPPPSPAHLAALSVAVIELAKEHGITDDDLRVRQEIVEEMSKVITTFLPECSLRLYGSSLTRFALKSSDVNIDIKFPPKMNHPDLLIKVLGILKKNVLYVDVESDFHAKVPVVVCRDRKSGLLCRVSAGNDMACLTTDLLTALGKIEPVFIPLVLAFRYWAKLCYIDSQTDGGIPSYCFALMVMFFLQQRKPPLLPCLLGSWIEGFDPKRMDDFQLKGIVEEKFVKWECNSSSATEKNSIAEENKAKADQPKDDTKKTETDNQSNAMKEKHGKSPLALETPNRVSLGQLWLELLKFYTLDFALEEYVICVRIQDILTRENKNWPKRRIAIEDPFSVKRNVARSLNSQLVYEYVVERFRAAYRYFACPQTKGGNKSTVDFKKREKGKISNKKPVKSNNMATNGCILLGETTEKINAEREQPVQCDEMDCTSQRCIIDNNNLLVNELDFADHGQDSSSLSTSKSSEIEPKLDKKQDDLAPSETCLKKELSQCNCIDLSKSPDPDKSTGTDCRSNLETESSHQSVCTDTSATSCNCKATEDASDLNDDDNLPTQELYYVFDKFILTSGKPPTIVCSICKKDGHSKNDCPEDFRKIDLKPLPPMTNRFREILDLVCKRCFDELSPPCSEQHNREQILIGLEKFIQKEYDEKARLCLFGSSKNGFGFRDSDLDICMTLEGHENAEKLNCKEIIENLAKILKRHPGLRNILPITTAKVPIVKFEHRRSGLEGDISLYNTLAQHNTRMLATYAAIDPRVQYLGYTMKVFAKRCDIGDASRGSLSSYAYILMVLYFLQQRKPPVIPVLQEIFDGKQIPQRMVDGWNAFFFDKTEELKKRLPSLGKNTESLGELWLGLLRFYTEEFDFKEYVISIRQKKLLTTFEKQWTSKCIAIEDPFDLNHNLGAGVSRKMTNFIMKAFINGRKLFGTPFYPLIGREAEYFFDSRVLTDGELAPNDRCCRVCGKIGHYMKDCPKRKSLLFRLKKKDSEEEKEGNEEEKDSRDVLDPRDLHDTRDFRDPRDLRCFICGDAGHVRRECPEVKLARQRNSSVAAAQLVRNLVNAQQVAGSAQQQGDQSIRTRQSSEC
# Experiment: TUTase assay (Zcchc11 assay, Lin28a-dependent polyuridylation of pre-let-7)
# Type: biochemical
# Details: LIN28A 10 nM, Zcchc11 0.2 nM, 5′-fluorescein pre-let-7 miRNA 2 nM, UTP 5 uM, room temperature, 30 minutes pre-incubation; read-out: Potency Lin28a-dep Z11 IC50
# Procedure, shortened: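 Human Zcchc11 residues 212-1420 (HEK293-expressed, MBP tag cleaved, C-terminal FLAG) at 0.2 nM, with 10 nM full-length human LIN28A and 2 nM 5′-fluorescein pre-let-7, preincubated with compound 30 min at room temperature. Reaction started with 5 uM UTP plus 4 nM 3′-rhodamine A20 quench probe; fluorescein loss read kinetically, IC50 from initial rates.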
row,IC50 [nM],SMILES
1,≤ 1000,"CN(C)c1ccc(-n2cc(C(=O)O)c(=O)c3cc(Cl)c(N4CCC[C@@H]4COc4ncccc4OCCN)cc32)cn1 [Example 53, 7-[(2R)-2-([[3-(2-Aminoethoxy)pyridin-2-yl]oxy]methyl)pyrrolidin-1-yl]-6-chloro-1-[6-(dimethylamino)pyridin-3-yl]-4-oxoquinoline-3-carboxylic acid]"
2,≤ 1000,"COc1ccnc(OC[C@H]2CCCN2c2cc3c(cc2Cl)c(=O)c(C(=O)O)cn3-c2ccc(N3CC(N(C)C)C3)nc2)c1Cl [Example 75, 6-chloro-7-[(2R)-2-{[(3-chloro-4-methoxypyridin-2-yl)oxy]methyl}pyrrolidin-1-yl]-1-{6-[3-(dimethylamino)azetidin-1-yl]pyridin-3-yl}-4-oxo-1,4-dihydroquinoline-3-carboxylic acid]"
3,≤ 1000,"CN(C)C1CN(c2ccc(-n3cc(C(=O)O)c(=O)c4cc(Cl)c(N5CCC[C@]5(C)COc5ncccc5Cl)nc43)cn2)C1 [Example 56, 6-chloro-7-[(2R)-2-[[(3-chloropyridin-2-yl)oxy]methyl]-2-methylpyrrolidin-1-yl]-1-[6-[3-(dimethylamino)azetidin-1-yl]pyridin-3-yl]-4-oxo-1,8-naphthyridine-3-carboxylic acid]"

# Same assay, conditions: Lin28a-dependent Zcchc11 (Z11) TUTase activity; read-out: Potency Lin28a-dep Z11 IC50
row,IC50 [nM],SMILES
1,1000 to 10000,"O=C(O)c1cn(-c2cc(F)cc(F)c2)c2cc(N3CCC[C@@H]3COc3ccccn3)c(F)cc2c1=O [Compound 144, (R)-1-(3,5-difluorophenyl)-6-fluoro-4-oxo-7-(2-((pyridin-2-yloxy)methyl)pyrrolidin-1-yl)-1,4-dihydro-quinoline-3-carboxylic acid]"
2,≤ 1000,"CN(C)C1CN(c2ncc(-n3cc(C(=O)O)c(=O)c4cc(Cl)c(N5CC(c6cccnc6)C[C@@H]5COc5ncccc5Cl)cc43)cn2)C1 (stereo partly drawn) [Compound 303, 6-chloro-7-((2R)-2-(((3-chloropyridin-2-yl)oxy)methyl)-4-(pyridin-3-yl)pyrrolidin-1-yl)-1-(2-(3-(dimethyl-amino)azetidin-1-yl)pyrimidin-5-yl)-4-oxo-1,4-dihydro-quinoline-3-carboxylic acid]"
3,≤ 1000,"CN(C)c1ccc(Cl)c(OC[C@H]2C[C@@H]3C[C@@H]3N2c2cc3c(cc2F)c(=O)c(C(=O)O)cn3-c2ccc(N3CC(N(C)C)C3)nc2)n1 [Compound 335, 7-[(1S,3R,5S)-3-({[3-Chloro-6-(dimethyl-amino)pyridin-2-yl]oxy}methyl)-2-azabicyclo [3.1.0]hexan-2-yl]-1-{6-[3-(dimethyl-amino)azetidin-1-yl]pyridin-3-yl}-6-fluoro-4-oxoquinoline-3-carboxylic acid]"
4,≤ 1000,"Cc1cccnc1OC[C@H]1CCCN1c1cc2c(cc1F)c(=O)c(C(=O)O)cn2-c1ccc(O)cc1F [Compound 101, (R)-6-fluoro-1-(2-fluoro-4-hydroxy-phenyl)-7-(2-(((3-methyl-pyridin-2-yl)oxy)methyl)pyrrolidin-1-yl)-4-oxo-1,4-dihydro-quinoline-3-carboxylic acid]"
5,≤ 1000,"CN(C)C1CN(c2ccc(-n3cc(C(=O)O)c(=O)c4cc(F)c(N5CC(c6cccnc6)C[C@@H]5COc5ncccc5Cl)cc43)cn2)C1 (stereo partly drawn) [Compound 325, 7-[(2R)-2-[[(3-Chloropyridin-2-yl)oxy]methyl]-4-(pyridin-3-yl)pyrrolidin-1-yl]-1-[6-[3-(dimethyl-amino)azetidin-1-yl]pyridin-3-yl]-6-fluoro-4-oxoquinoline-3-carboxylic acid]"
6,≤ 1000,"Cc1ccnc(OC[C@H]2CCCN2c2cc3c(cc2F)c(=O)c(C(=O)O)cn3-c2ccccc2)c1 [Compound 94, (R)-6-fluoro-7-(2-(((4-methyl-pyridin-2-yl)oxy)methyl)pyrrolidin-1-yl)-4-oxo-1-phenyl-1,4-dihydro-quinoline-3-carboxylic acid]"

# Same assay, conditions: Lin28a-dependent Zcchc11 (Z11) TUTase assay; read-out: Potency Lin28a-dep Z11 IC50
row,IC50 [nM],SMILES
1,≤ 1000,"COc1ccc(-n2cc(C(=O)O)c(=O)c3cc(Cl)c(N4CCC[C@@H]4COc4ncccc4Cl)cc32)cn1 [Example 353, (R)-6-chloro-7-(2-(((3-chloropyridin-2-yl)oxy)methyl)pyrrolidin-1-yl)-1-(6-methoxypyridin-3-yl)-4-oxo-1,4-dihydroquinoline-3-carboxylic acid]"
2,≤ 1000,"O=C(O)c1cn(-c2ccc(N3CC4CNCC4C3)nc2)c2cc(N3CCC[C@@H]3COc3ncccc3Cl)c(Cl)cc2c1=O (stereo partly drawn) [Example 527, 6-chloro-7-((R)-2-(((3-chloropyridin-2-yl)oxy)methyl)pyrrolidin-1-yl)-1-(6-(hexahydro-pyrrolo[3,4-c]pyrrol-2(1H)-yl)pyridin-3-yl)-4-oxo-1,4-dihydroquinoline-3-carboxylic acid acid]"
3,≤ 1000,"O=C(O)c1cn(-c2ccncn2)c2cc(N3CCC[C@@H]3COc3ncccc3Cl)c(Cl)cc2c1=O [Example 541, (R)-6-chloro-7-(2-(((3-chloropyridin-2-yl)oxy)methyl)pyrrolidin-1-yl)-4-oxo-1-(pyrimidin-4-yl)-1,4-dihydroquinoline-3-carboxylic acid]"
4,≤ 1000,"CN(C)C1CN(c2ccc(-n3cc(C(=O)O)c(=O)c4cc(Cl)c(N5CCC[C@H]5COc5ncccc5Cl)cc43)cn2)C1 [Example 666, (S)-6-chloro-7-(2-(((3-chloropyridin-2-yl)oxy)methyl)pyrrolidin-1-yl)-1-(6-(3-(dimethylamino)azetidin-1-yl)pyridin-3-yl)-4-oxo-1,4-dihydroquinoline-3-carboxylic acid]"

# More lines, now with the values behind:
row,SMILES,IC50 [nM]
1,"COc1ccc(C2C[C@H](COc3ncccc3Cl)N(c3cc4c(cc3Cl)c(=O)c(C(=O)O)cn4-c3ccc(N4CC(N(C)C)C4)nc3)C2)cn1 (stereo partly drawn) [Example 603, 6-chloro-7-((2R)-2-(((3-chloropyridin-2-yl)oxy)methyl)-4-(6-methoxypyridin-3-yl)pyrrolidin-1-yl)-1-(6-(3-(dimethylamino)azetidin-1-yl)pyridin-3-yl)-4-oxo-1,4-dihydroquinoline-3-carboxylic acid]",≤ 1000
2,"O=C(O)c1cn(-c2cnccn2)c2cc(N3CC(F)(F)C[C@@H]3COc3ncccc3Cl)c(Cl)cc2c1=O [Example 638, (R)-6-chloro-7-(2-(((3-chloropyridin-2-yl)oxy)methyl)-4,4-difluoropyrrolidin-1-yl)-4-oxo-1-(pyrazin-2-yl)-1,4-dihydroquinoline-3-carboxylic acid]",≤ 1000
3,"O=C(O)c1cn(C2CC2)c2c(F)c(N3CCC[C@@H]3COc3cccnc3)c(F)cc2c1=O [Example 357, (R)-1-cyclopropyl-6,8-difluoro-4-oxo-7-(2-((pyridin-3-yloxy)methyl)pyrrolidin-1-yl)-1,4-dihydro-quinoline-3-carboxylic acid]",1000 to 10000
4,"COC1CC(n2cc(C(=O)O)c(=O)c3cc(F)c(N4CCC[C@@H]4COc4ccccn4)cc32)C1 (stereo partly drawn) [Example 359, (R)-6-fluoro-1-(3-methoxycyclo-butyl)-4-oxo-7-(2-((pyridin-2-yloxy)methyl)pyrrolidin-1-yl)-1,4-dihydro-quinoline-3-carboxylic acid]",1000 to 10000
5,"O=C(O)c1cn(-c2nncs2)c2cc(N3CCC[C@@H]3COc3ccccn3)c(F)cc2c1=O [Example 433, (R)-6-fluoro-4-oxo-7-(2-((pyridin-2-yloxy)methyl)pyrrolidin-1-yl)-1-(1,3,4-thiadiazol-2-yl)-1,4-dihydroquinoline-3-carboxylic acid]",1000 to 10000

# Reference: patent publication US12662491B2 (Redona Therapeutics, Inc., priority 2020, dated 2026)
